Reference: ChEMBL document CHEMBL1201862, “PubChem BioAssay data set” (2004)
Active and inactive are the calls of the source.

Tests used:
[1] = inhibitors of intracellular T. cruzi replication, confirmation, NIH3T3 host cells, beta-gal luminescence (AID 2044); assay type: functional, cell-based;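 also: intracellular parasites grown in NIH/3T3 mouse fibroblasts as host cells; luminescent beta-galactosidase reporter signal from transgenic T. cruzi replicating inside host cells; inhibitors lower the luminescence signal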
[2] = cytotoxicity toward NIH3T3 fibroblasts, dose response, counter-screen, cell-based, ATP luminescence, mouse fibroblasts (AID 2010); assay type: functional;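 also: cells exposed to compound for about 90 hours before reading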
[3] = target: T1, Corticotropin-releasing factor receptor 2/Corticotropin-releasing factor-binding protein (Homo sapiens, UniProt P24387+Q13324); assay: activators of CRF receptor 2 with binding protein – uHTS hits, confirmation (AID 602473); assay type: functional; conditions: read-out: EC50_Mean
T1 sequence (Q13324 whole entry): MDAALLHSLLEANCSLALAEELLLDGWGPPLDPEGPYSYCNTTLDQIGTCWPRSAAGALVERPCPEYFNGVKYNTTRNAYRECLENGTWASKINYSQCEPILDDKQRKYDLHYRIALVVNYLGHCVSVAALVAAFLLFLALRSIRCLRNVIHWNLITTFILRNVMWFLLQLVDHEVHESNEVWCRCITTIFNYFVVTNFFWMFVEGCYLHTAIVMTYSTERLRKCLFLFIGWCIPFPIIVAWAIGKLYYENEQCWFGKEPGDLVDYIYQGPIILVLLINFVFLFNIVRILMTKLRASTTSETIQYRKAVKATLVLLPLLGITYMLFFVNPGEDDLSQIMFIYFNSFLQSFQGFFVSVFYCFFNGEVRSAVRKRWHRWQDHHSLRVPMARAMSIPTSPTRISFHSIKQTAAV
T1 sequence (P24387 whole entry): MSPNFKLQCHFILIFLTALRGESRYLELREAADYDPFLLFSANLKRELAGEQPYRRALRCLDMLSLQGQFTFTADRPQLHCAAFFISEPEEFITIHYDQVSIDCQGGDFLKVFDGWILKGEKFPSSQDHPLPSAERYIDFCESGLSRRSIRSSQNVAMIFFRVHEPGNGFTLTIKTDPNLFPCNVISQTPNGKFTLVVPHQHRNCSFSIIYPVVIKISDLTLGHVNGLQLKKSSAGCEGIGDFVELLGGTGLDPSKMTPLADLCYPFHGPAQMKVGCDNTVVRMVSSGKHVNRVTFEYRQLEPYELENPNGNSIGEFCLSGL

Cytochrome P450 3A4 = Cytochrome P450 3A4 (Homo sapiens, UniProt P08684);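 also: CYP3A4 tested as one member of a cytochrome P450 panel screen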
Cytochrome P450 3A4, sequence (P08684 whole entry): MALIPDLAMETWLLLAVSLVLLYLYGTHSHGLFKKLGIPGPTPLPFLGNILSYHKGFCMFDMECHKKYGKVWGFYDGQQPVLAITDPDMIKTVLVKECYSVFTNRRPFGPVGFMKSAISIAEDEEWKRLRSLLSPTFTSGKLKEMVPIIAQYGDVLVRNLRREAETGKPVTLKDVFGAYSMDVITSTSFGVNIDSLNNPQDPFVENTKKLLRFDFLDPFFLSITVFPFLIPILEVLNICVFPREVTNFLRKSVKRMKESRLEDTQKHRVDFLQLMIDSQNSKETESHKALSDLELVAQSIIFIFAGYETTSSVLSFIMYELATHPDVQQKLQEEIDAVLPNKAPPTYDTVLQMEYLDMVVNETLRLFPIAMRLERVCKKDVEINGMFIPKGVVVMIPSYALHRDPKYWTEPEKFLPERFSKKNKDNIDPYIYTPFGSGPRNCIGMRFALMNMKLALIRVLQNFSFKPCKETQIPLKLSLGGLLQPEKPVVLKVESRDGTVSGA

Cytochrome P450 2C19 = Cytochrome P450 2C19 (Homo sapiens, UniProt P33261); assay: Cytochrome panel assay with activity outcomes. Panel member name: p450-cyp2c19 Compounds with AC50 equal or less than 10 uM are considered active; assay type: functional
Cytochrome P450 2C19, sequence (P33261 whole entry): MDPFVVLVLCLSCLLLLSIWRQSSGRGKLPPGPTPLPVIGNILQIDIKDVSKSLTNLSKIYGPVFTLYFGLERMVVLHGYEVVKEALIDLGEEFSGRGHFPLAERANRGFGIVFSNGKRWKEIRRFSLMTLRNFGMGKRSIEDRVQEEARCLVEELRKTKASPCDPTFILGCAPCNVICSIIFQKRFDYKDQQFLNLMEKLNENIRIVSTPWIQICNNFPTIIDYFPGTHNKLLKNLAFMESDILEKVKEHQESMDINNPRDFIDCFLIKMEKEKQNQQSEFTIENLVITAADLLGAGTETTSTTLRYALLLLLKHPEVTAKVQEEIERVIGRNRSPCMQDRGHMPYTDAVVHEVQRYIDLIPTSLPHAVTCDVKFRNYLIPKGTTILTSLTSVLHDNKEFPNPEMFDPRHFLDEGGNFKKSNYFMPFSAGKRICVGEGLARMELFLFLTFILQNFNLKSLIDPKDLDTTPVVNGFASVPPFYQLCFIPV

[4] = tested on: Streptococcus sp. 'group A'; assay: growth inhibition of control SK(-) GAS strain, dose response, counter-screen for streptokinase expression inhibitor project, luminescence, kanamycin, BacTiterGlo, confirmation (AID 1900); assay type: functional, organism-based
Streptokinase A = target: T2, Streptokinase A (Streptococcus pyogenes serotype M1, UniProt P10520); assay: S. pyogenes streptokinase expression inhibitors, potency, dose response, plasminogen activation absorbance, OD405 (AID 1914); assay type: functional, Streptococcus pyogenes M1 GAS;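 also: secreted streptokinase activity via plasminogen activation per viability signal from cell pellet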
T2 sequence (P10520 whole entry): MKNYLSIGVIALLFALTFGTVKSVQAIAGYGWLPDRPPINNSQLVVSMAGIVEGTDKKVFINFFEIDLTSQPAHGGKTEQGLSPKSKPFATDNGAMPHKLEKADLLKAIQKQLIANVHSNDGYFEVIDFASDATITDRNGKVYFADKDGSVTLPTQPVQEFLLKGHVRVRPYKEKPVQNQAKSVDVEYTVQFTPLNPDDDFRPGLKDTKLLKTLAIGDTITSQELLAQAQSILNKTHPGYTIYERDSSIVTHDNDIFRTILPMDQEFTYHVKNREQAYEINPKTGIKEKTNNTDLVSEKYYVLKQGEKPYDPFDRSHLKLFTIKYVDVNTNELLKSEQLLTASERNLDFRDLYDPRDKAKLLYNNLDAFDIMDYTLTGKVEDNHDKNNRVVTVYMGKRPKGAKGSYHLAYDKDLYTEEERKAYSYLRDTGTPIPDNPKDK

Streptococcus = assay: Group A Streptococcus viability loss, dose response, counter-screen for streptokinase expression inhibitor project, luminescence, BacTiterGlo (AID 1915); assay type: functional, organism-based;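 also: potency for reduction of bacterial viability or growth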

Cc1cc2c(NC(=O)Nc3ccc(C(F)(F)F)cc3)cccc2nn1
EC50 [1]: 4.55 µM (active)
EC50 [2]: > 60 µM (not active)

COc1ccc2c(CC#N)c[nH]c2c1
EC50 [3]: > 53 µM (inactive)

CCC1CCCCN1C(=O)COC(=O)COc1ccc(Br)cc1 (stereo unspecified)
EC50 [3]: > 53 µM (inactive)

O=C(C/C=N/OCc1ccc(F)cc1Cl)c1cnc(-c2ccccc2)s1
AC50 (Cytochrome P450 3A4): 14.1 µM (inconclusive)

Cc1nc(Nc2ccc(S(=O)(=O)N3CCCCC3C)cc2)c2nnn(Cc3ccccc3)c2n1 (stereo unspecified)
EC50 [1]: 1.92 µM (active)
EC50 [2]: > 60 µM (not active)

COc1ccc(NC(=O)c2cccc(Cn3cc(Br)c([N+](=O)[O-])n3)c2)c(C)c1
EC50 [1]: 0.32 µM (active)
EC50 [2]: 9.14 µM (active)

Cc1noc(C)c1-c1nccc(N(C)Cc2ccco2)n1
AC50 (Cytochrome P450 3A4): 25.1 µM (inconclusive)

COc1ccccc1NC(=O)N1CCCC1C(=O)NCc1ccc2c(c1)OCO2 (stereo unspecified)
AC50 (Cytochrome P450 2C19; read-out: AC50): 28.2 µM (inconclusive)

CN(C(=O)Cc1c(C(=O)O)n(C)c2ccccc12)c1ccc(F)cc1
EC50 [4]: > 150 µM (not active)
EC50 (Streptokinase A): > 150 µM (not active)
EC50 (Streptococcus): > 150 µM (not active)

CCCCCCC(=O)NN/C=C1/C(=O)NC(=S)N(CCCC)C1=O
EC50 [4]: 5.51 µM (active)
EC50 (Streptokinase A): > 150 µM (not active)
EC50 (Streptococcus): 49.3 µM (active)

CCOc1ccc(Br)cc1C1C(C(=O)OC)=C(N)Oc2cc(N(C)C)ccc21 (stereo unspecified)
EC50 [1]: 0.826 µM (active)
EC50 [2]: 8.1 µM (active)

COc1ccc(S(=O)(=O)N2Cc3ccccc3CC2C(=O)Nc2nccs2)cc1 (stereo unspecified)
AC50 (Cytochrome P450 3A4): 3.55 µM (active)

CN(CCOc1ccccc1)CC(O)COCc1ccccc1F (stereo unspecified)
EC50 [1]: 0.526 µM (active)
EC50 [2]: > 60 µM (not active)

COc1ccc(Cc2noc(CN3CCN(Cc4cccc(Cl)c4)CC3)n2)cc1OC
EC50 [1]: 0.788 µM (active)
EC50 [2]: > 30 µM (not active)

COc1ccc(-n2c(=O)cnc3cnc(Oc4ccccc4)nc32)cc1
AC50 (Cytochrome P450 2C19; read-out: AC50): 39.8 µM (inconclusive)

CCS(=O)(=O)N1CCN(c2ccc(C(=O)NC3C4CC5CC(C4)CC3C5)cc2[N+](=O)[O-])CC1 (stereo unspecified)
EC50 [1]: 2.32 µM (active)
EC50 [2]: > 30 µM (not active)

Cc1ccc(NS(=O)(=O)c2cc([N+](=O)[O-])ccc2NN=C(S)Nc2cccc(Cl)c2)c(C)c1
EC50 [4]: 0.833 µM (active)
EC50 (Streptococcus): 2.37 µM (active)

OCCNc1ncnc2nc[nH]c12
AC50 (Cytochrome P450 3A4): 0.251 µM (inconclusive)

COc1ccc(NC(=O)C(OC(=O)c2cnc(C)cn2)c2ccccc2)cc1Cl (stereo unspecified)
EC50 [4]: 4.66 µM (active)
EC50 (Streptokinase A): > 150 µM (not active)
EC50 (Streptococcus): > 150 µM (not active)

Cn1c(S)nnc1CNS(=O)(=O)c1ccc(F)cc1
AC50 (Cytochrome P450 2C19; read-out: AC50): 39.8 µM (inconclusive)

Cc1cn(CC[C@H](N)C(=O)O)c(=O)[nH]c1=O
AC50 (Cytochrome P450 2C19): inconclusive

COc1ccc2c(c1)CCCC21NC(=O)N(CC(N)=O)C1=O (stereo unspecified)
AC50 (Cytochrome P450 2C19; read-out: AC50): 39.8 µM (inconclusive)

CN1CCN(c2oc(COc3ccc(-c4ccccc4)cc3)nc2C#N)CC1
EC50 [1]: 0.226 µM (active)
EC50 [2]: > 60 µM (not active)

c1cncc(-c2nc(NCCCN3CCOCC3)c3c4c(sc3n2)CCC4)c1
EC50 [1]: 2.58 µM (active)
EC50 [2]: > 60 µM (not active)

Cc1ccc(NC(=S)/N=C(\N)Nc2nc(C)c3cc(C)c(C)cc3n2)cc1C
EC50 [1]: 1.98 µM (active)

CCC1(C)CC(=O)NC(=O)C1 [BEMEGRIDE]
AC50 (Cytochrome P450 2C19): inconclusive

CC(=O)N1CCC[C@@]2(CCN(c3ccncc3)C2)C1
AC50 (Cytochrome P450 3A4): 25.1 µM (inconclusive)

CCC1(CC)C(=O)N(Cc2ccccc2)C(=O)N(Cc2ccccc2)C1=O
EC50 [1]: 1.71 µM (active)
EC50 [2]: > 30 µM (not active)

CC1(C)CC2CC(C)(CN2C(=O)c2ccc([N+](=O)[O-])cc2[N+](=O)[O-])C1 (stereo unspecified)
EC50 [1]: 0.955 µM (active)
EC50 [2]: > 60 µM (not active)

Cc1noc(C)c1C(=O)N1CCC2(CCCN(Cc3nccs3)C2)CC1
AC50 (Cytochrome P450 3A4): 12.6 µM (inconclusive)

COc1cccc(-c2cc(C(=O)NCC3CCCO3)c3cc(Br)cc(C)c3n2)c1 (stereo unspecified)
EC50 [4]: > 150 µM (not active)
EC50 (Streptokinase A): > 150 µM (not active)
EC50 (Streptococcus): > 150 µM (not active)

Fc1ccc(COc2ccccc2CNCc2ccncc2)cc1
EC50 [1]: 2.14 µM (active)

COC(=O)NC/C=C\c1nc(CC/C=C\C(=O)O[C@H]2C[C@H]3CC(=O)O[C@@H](/C=C\CC(C)C)C[C@@H]4CC[C@H](C)[C@H](C[C@@H](OC)C[C@H](C2)O3)O4)co1
AC50 (Cytochrome P450 2C19): inconclusive

O=C(CCCCCn1c(=S)[nH]c2cc3c(cc2c1=O)OCO3)N1CCN(C2CCCCC2)CC1
AC50 (Cytochrome P450 2C19; read-out: AC50): 7.08 µM (inconclusive)

CCc1ccc(S(=O)(=O)NCC2(N3CCOCC3)CCCCC2)cc1
EC50 [3]: 6.83 µM (active)

CCOc1ccc(NC(=O)CCSc2nc3c(c(CC)c2C#N)C(=O)CC(C)(C)C3)cc1
EC50 [1]: 2.94 µM (active)
EC50 [2]: > 60 µM (inconclusive)

CCCC(=O)Nc1nc(-c2ccc3c(c2)CCN3S(C)(=O)=O)cs1
AC50 (Cytochrome P450 3A4): 7.94 µM (inconclusive)

O=C(COc1ccccc1)N1CCN(c2nnc(-c3ccccc3)c3ccccc23)CC1
EC50 [1]: 1.77 µM (active)
EC50 [2]: > 60 µM (not active)

COc1ccc(C(=O)Nc2scc(-c3ccc(Cl)cc3Cl)c2C(N)=O)cc1
AC50 (Cytochrome P450 3A4): 28.2 µM (inconclusive)

O=C(Nc1nnc(C2CC2)s1)c1ccncc1
AC50 (Cytochrome P450 3A4): 14.1 µM (inconclusive)

O=c1c(-c2ccc(F)cc2)nc2cnc(N3CCOCC3)nc2n1Cc1cccs1
AC50 (Cytochrome P450 3A4): 15.8 µM (inconclusive)

CCc1ccccc1N1CN(Cc2ccco2)CNC1=S
EC50 [3]: > 53 µM (inactive)

CCCCN=C(S)N1CCn2cccc2C1c1cccnc1 (stereo unspecified)
EC50 [1]: 1.77 µM (active)
EC50 [2]: > 60 µM (inconclusive)

COc1cc(N)c(Cl)cc1C(=O)CCC1CCN(CCNS(C)(=O)=O)CC1
AC50 (Cytochrome P450 3A4): 15.8 µM (inconclusive)

Fc1ccc(NC(=S)N2CCn3cccc3C2c2cccnc2)cc1 (stereo unspecified)
EC50 [1]: 0.229 µM (active)
EC50 [2]: > 60 µM (not active)

C=CCNC(=O)c1cccn1-c1ccsc1C(=O)OC
AC50 (Cytochrome P450 3A4): 14.1 µM (inconclusive)

Cc1nc2cnc(N3CCOCC3)nc2n(C2CC2)c1=O
AC50 (Cytochrome P450 3A4): 15.8 µM (inconclusive)

C=CCC[C@H](Cc1ccc(F)cc1)C(=O)OC[C@H](Cc1c[nH]c2ccccc12)NC(=O)[C@@H](CC=C)CC(=O)NCCO
EC50 [3]: 12.8 µM (active)

Cc1ccc(S(=O)(=O)NC2=NC(=O)/C(=C/c3cccnc3)S2)cc1
AC50 (Cytochrome P450 3A4): 0.891 µM (inconclusive)

N#Cc1cccc(-c2nc3cnc(N4CCNCC4)nc3n(C3CC3)c2=O)c1
AC50 (Cytochrome P450 3A4): 20 µM (inconclusive)

CN=C(S)Nc1ccc2nc(C)c(C)nc2c1
AC50 (Cytochrome P450 3A4): 17.8 µM (inconclusive)
AC50 (Cytochrome P450 2C19; read-out: AC50): 39.8 µM (inconclusive)
